Measurements taken from publication PMC8341778, “Deciphering the substrate recognition mechanisms of the heparan sulfate 3-O-sulfotransferase-3” (RSC Chemical Biology, 2021).

Tests used:
[1] = target: T1, 3-OST-3 (Homo sapiens, UniProt Q9Y663); assay: inhibition of sulfotransferase activity; assay type: biochemical
T1 construct: gene HS3ST3A1; purified enzyme; two molecules in the asymmetric unit
T1 sequence (Q9Y663 1-406): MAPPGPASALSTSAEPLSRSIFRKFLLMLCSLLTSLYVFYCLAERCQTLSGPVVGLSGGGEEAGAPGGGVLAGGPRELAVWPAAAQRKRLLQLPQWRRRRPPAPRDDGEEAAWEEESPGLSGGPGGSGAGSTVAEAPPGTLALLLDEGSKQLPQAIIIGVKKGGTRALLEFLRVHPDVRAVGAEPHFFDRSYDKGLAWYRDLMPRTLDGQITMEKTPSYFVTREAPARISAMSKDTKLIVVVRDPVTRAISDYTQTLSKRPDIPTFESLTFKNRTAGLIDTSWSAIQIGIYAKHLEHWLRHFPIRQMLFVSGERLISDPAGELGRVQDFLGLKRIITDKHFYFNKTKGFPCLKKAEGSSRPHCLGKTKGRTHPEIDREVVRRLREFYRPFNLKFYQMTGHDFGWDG

[2] = target: T1, 3-OST-3; assay: isothermal titration calorimetry; assay type: binding
[3] = target: T1, 3-OST-3; assay: crystal structure of ternary complex, […] Å; assay type: binding; details: with PAP; sodium ion at saccharides f and g

IC50 ([1]; product inhibition) | Kd [2] | IC50 ([1]; product inhibition, 8-mer 1 sulfation) | IC50 ([1]; substrate inhibition, compound is itself slowly sulfated) | Compound | crystal structure of ternary complex, 2.34 Å [3]
12 nM | 4.7 µM | – | – | CC(=O)N[C@H]1[C@@H](O[C@H]2[C@H](O)[C@@H](O)[C@H](O[C@H]3[C@H](O)[C@@H](NS(=O)(=O)O)[C@@H](O[C@H]4[C@H](O)[C@@H](OS(=O)(=O)O)[C@H](O[C@H]5[C@H](OS(=O)(=O)O)[C@@H](NS(=O)(=O)O)[C@@H](O[C@H]6[C@H](O)[C@@H](OS(=O)(=O)O)[C@H](O[C@H]7[C@H](O)[C@@H](NS(=O)(=O)O)[C@@H](O[C@H]8[C@H](O)[C@@H](O)[C@H](Oc9ccc([N+](=O)[O-])cc9)O[C@@H]8C(=O)O)O[C@@H]7COS(=O)(=O)O)O[C@H]6C(=O)O)O[C@@H]5COS(=O)(=O)O)O[C@H]4C(=O)O)O[C@@H]3COS(=O)(=O)O)O[C@@H]2C(=O)O)O[C@H](COS(=O)(=O)O)[C@@H](O)[C@@H]1O [8-mer 4] | –
– | 74 µM | ~1000 nM | – | CC(=O)N[C@H]1[C@@H](O[C@H]2[C@H](O)[C@@H](O)[C@H](O[C@H]3[C@H](O)[C@@H](NS(=O)(=O)O)[C@@H](O[C@H]4[C@H](O)[C@@H](OS(=O)(=O)O)[C@H](O[C@H]5[C@H](OS(=O)(=O)O)[C@@H](NS(=O)(=O)O)[C@@H](O[C@H]6[C@H](O)[C@@H](OS(=O)(=O)O)[C@H](O[C@H]7[C@H](O)[C@@H](NS(=O)(=O)O)[C@@H](O[C@H]8[C@H](O)[C@@H](O)[C@H](Oc9ccc([N+](=O)[O-])cc9)O[C@@H]8C(=O)O)O[C@@H]7CO)O[C@H]6C(=O)O)O[C@@H]5CO)O[C@H]4C(=O)O)O[C@@H]3CO)O[C@@H]2C(=O)O)O[C@H](CO)[C@@H](O)[C@@H]1O [8-mer 2] | –
– | – | – | – | CC(=O)N[C@H]1[C@@H](O[C@H]2[C@H](O)[C@@H](O)[C@H](O[C@H]3[C@H](O)[C@@H](NS(=O)(=O)O)[C@@H](O[C@H]4[C@H](O)[C@@H](OS(=O)(=O)O)[C@H](O[C@H]5[C@H](O)[C@@H](NS(=O)(=O)O)[C@@H](O[C@H]6[C@H](O)[C@@H](OS(=O)(=O)O)[C@H](O[C@H]7[C@H](O)[C@@H](NS(=O)(=O)O)[C@@H](O[C@H]8[C@H](O)[C@@H](O)[C@H](Oc9ccc([N+](=O)[O-])cc9)O[C@@H]8C(=O)O)O[C@@H]7CO)O[C@H]6C(=O)O)O[C@@H]5CO)O[C@H]4C(=O)O)O[C@@H]3CO)O[C@@H]2C(=O)O)O[C@H](CO)[C@@H](O)[C@@H]1O [8-mer 1] | crystal structures of 3-OST-3 in the presence of PAP, the sulfo donor product analog
– | 10 µM | – | 150 nM | CC(=O)N[C@H]1[C@@H](O[C@H]2[C@H](O)[C@@H](O)[C@H](O[C@H]3[C@H](O)[C@@H](NS(=O)(=O)O)[C@@H](O[C@H]4[C@H](O)[C@@H](OS(=O)(=O)O)[C@H](O[C@H]5[C@H](O)[C@@H](NS(=O)(=O)O)[C@@H](O[C@H]6[C@H](O)[C@@H](OS(=O)(=O)O)[C@H](O[C@H]7[C@H](O)[C@@H](NS(=O)(=O)O)[C@@H](O[C@H]8[C@H](O)[C@@H](O)[C@H](Oc9ccc([N+](=O)[O-])cc9)O[C@@H]8C(=O)O)O[C@@H]7COS(=O)(=O)O)O[C@H]6C(=O)O)O[C@@H]5COS(=O)(=O)O)O[C@H]4C(=O)O)O[C@@H]3COS(=O)(=O)O)O[C@@H]2C(=O)O)O[C@H](COS(=O)(=O)O)[C@@H](O)[C@@H]1O [8-mer 3] | –
